The values that follow come from patent US20120178089A1, “MATERIALS AND METHODS FOR THE IDENTIFICATION OF DRUG-RESISTANT CANCERS AND TREATMENT OF SAME” (priority 2009, published 2012).

SMILES strings stand for the structures. pIC50: −log10 of the molar value. Entries after “also recorded” stand apart in the source; their conditions may differ.

Experiment [1] addresses Purified recombinant NEK2 kinase protein (Homo sapiens, UniProt P51955). Particulars: read-out: IC50 (NEK2 kinase activity, titration assays); titration of screening hits. As for the experimental part: NEK2 kinase activity assay. Purified recombinant NEK2 kinase protein (Cell Signaling Technology, Beverley, Mass.), was added to 96 well plates in the appropriate reaction buffer. Compounds were added to each well to a final concentration of 5 μM. Reaction mixtures were incubated for 15 minutes. The Kinase-Glo Luminescent Kinase Assay kit (Promega, Madison, Wis.) was used to determine the remaining ATP, which is inversely related to kinase activity.
By NEK2 kinase activity assay, we screened a Kinase Inhibitor Library from Calbiochem Inc. (San Diego, Calif.).

In experiment [2] the test system is NEK2 expression in MM, lung cancer and breast cancer cells. In words: Inhibition of NEK2 expression in cancer cell lines (western blots). It counts as cell-based. To be noted: especially NEK2 over-expressed. As for the experimental part: FIG. 7a is a graph showing the results of screening a Kinase Inhibitor Library.
Western Blots. Western blots were performed to examine the protein levels in MM cells as previously described in Xiong, W., et al. Blood 112, 4235-4246 (2008) and Zhan, F., et al. Blood 109, 4995-5001 (2007). NEK2 antibodies were purchased from BD Biosciences Pharmingen (San Jose, Calif.); and all other primary antibodies were purchased from Cell Signaling Technology (Beverly, Mass.). β-actin was used to normalize the amount of protein in each sample.
(In general: Immunoblotting shows a protein as a band on a membrane.)

The test system of experiment [3] is NEK2-transfected OCI-MY5, H1299 and MCF7 cells and EV control cells. Briefly: Cytotoxic effects of KP372-1 on NEK2-overexpressing cell lines. It counts as cell-based. To be noted: 5 μM, 5 days. As for the experimental part:
Cell proliferation assay. Briefly, cancer cells transfected with NEK2 cDNA or NEK2 shRNA and their relative controls of empty vector or Scrambled shRNA were seeded in 12-well plates at 0.2×10^6 per well. All tests were set in triplicate or quadruplicate. Cultured cells were counted with a hemocytometer to evaluate cellular proliferation, and dead cells were determined by trypan blue staining, from which dead-cell fraction was calculated. Cell proliferation assays were done at various time points for at least one week after infection or addition doxycycline one day.
We then determined the cytotoxic effects of this compound KP372-1 on the NEK2-overexpressing myeloma cell lines. Cultures of cell lines transfected with a vector for overexpression of NEK2 (myeloma OCI-MY5, a lung cancer cell line H1299, and a breast cancer cell line MCF7) were treated with 5 μM KP372-1 for 5 days. Cell proliferation and cell death were evaluated. Empty vector (EV)-transfected cancer cells with or without treatment were used as controls.

Experiment [4] concerns KMS28PE and ARP1 cells, bortezomib-resistant (vel-R) and bortezomib-sensitive. Briefly: KP372-1 treatment of bortezomib-resistant and bortezomib-sensitive myeloma cell lines. The class given is cell-based. As for the experimental part:
FIGS. 9a-9d are a series of graphs showing the treatment with KP372-1 overcomes drug-resistance in cancer cells. The myeloma cell lines KMS28PE (A & B) and ARP1 (C & D) including both bortezomib-sensitive and bortezomib-resistant (vel-R) were treated with KP372-1 at concentrations of 1 μM and 5 μM for 5 days.
To determine whether the NEK2 inhibitor KP372-1 can overcome drug resistance in KMS28PE- and ARP1-bortezomib resistant myeloma cell lines, we treated with KP372-1 at concentrations of 1 μM and 5 μM.

Experiment [5] has as its system 5TGM1 multiple myeloma cells. Briefly: Efficacy of KP372-1 in a mouse model of multiple myeloma. To be noted: for tumor burden (tumor volumes): FIG. 10b. It counts as in vivo, C57BL/KaLwRij mice. As for the experimental part: Efficacy of KP372-1 in a mouse model of multiple myeloma. C57BL/KaLwRij mice (n=5 in each group) were injected with 1×10^6 5TGM1 cells through their tail vein. Seven days following tumor inoculation, tumor-bearing mice were treated with KP372-1, bortezomib or a combination of KP372-1 with bortezomib.
KP372-1 (NI-2) was used to treat 8 mice in each study group including four groups with single agent or combination with bortezomib (velcade). 1×10^6 5TGM1 multiple myeloma cells (in 100 μL PBS) were injected into each mouse through the tail vein and tumors were allowed to grow for 1 week. Treatment with bortezomib (1 mg/kg, 2 times/week, sc), NI-2 (0.8 mg/kg 3 times/week, sc), and the combination of KP372-1 (NI-2) with bortezomib (velcade) was performed 1 week after injection.
We also developed a bortezomib-resistant 5TGM1 line (5TGM1-DR) using a stepwise increase of the bortezomib concentration in the cultures. […] We examined the effects of KP372-1 treatment on the growth of 5TGM1 myeloma mouse. KP372-1 was given to 8 mice in each of the five groups, including single agent or combination treatment with bortezomib: 5TGM1-WT, 5TGM1-DR, 5TGM1-DR+KP372-1 (0.8 mg/kg, 3 times/week, s.c), 5TGM1-DR+bortezomib (1 mg/kg, 2 times/week, s.c), 5TGM1-DR+bortezomib+KP372-1.

The next experiment has as its system RPMI8226 cells. In words: Bortezomib treatment of bortezomib-resistant and parental RPMI8226 cells. The class given is cell-based. To be noted: Homo sapiens. An excerpt: (§1) To test the role of NEK2 in promoting cell growth, we over-expressed NEK2 in normal fibroblasts BJ, the MM cell lines ARP1, KMS28PE, and OCI-MY5, the lung cancer cell line H1299, and breast cancer cell line MDA231 by lentivirus-mediated NEK2-cDNA transfection (FIG. 2a). […] We subsequently examined the role of NEK2 in myeloma drug-resistance. We developed 2 bortezomib-resistant MM cell lines, RPMI 8226 and ARP1, by a stepwise increase of the bortezomib concentration in cultures.

A further experiment relates to ARP1 cells. Briefly: Bortezomib treatment of bortezomib-resistant and parental ARP1 cells. It counts as cell-based.
Text: as §1

In the next experiment the test system is 5TGM1 cells. In words: Bortezomib treatment of bortezomib-resistant and wild-type 5TGM1 cells. The class given is cell-based.
For experiment [6], the system named is NEK2-transfected ARP1, KMS28PE, H1299, MCF7, and MDA231 cells. Briefly: Treatment of NEK2-overexpressing cancer cells with chemotherapeutic drugs. It counts as cell-based. Particulars: 48 hours; for growth inhibition in NEK2-transfected cells compared with EV-transfected controls: P<0.05; for cell death in NEK2-transfected cells compared with EV-transfected controls: P<0.05, data not shown. As for the experimental part:
Treatment of NEK2-overexpressing MM cells with chemotherapeutic drugs. To determine the role of NEK2 in cancer drug-resistance, ARK, KMS28PE, OCI-MY5, H1299, and MCF7 cell lines were transfected with NEK2-cDNA to overexpress NEK2 by lentivirus expression vector system. 1×10^6 cells were treated with bortezomib at 5 nM for 48 hours in the cultures. Cell proliferation was evaluated by cell counting with a hemocytometer, and dead cells were determined by trypan blue staining, from which dead-cell fraction was calculated. Untreated cells and empty-vector (EV)-transfected cells with or without drug-treatment were used as controls.
To determine whether NEK2 over-expression is sufficient to confer drug-resistance in cancer cells, NEK2-transfected ARP1, KMS28PE, H1299, MCF7, and MDA231 cells were then treated with bortezomib at the dose of 4, 8, and 16 nM bortezomib for 48 hours and cell death was evaluated. EV-transfected cells with or without bortezomib served as controls.

Where [7] appears, read: NEK2-transfected and EV control cells.
Where [8] appears, read: KP372-1 1 μM and 5 μM, 5 days, both vel-R and sensitive lines.

Chain of Purified recombinant NEK2 kinase protein (P51955 whole entry): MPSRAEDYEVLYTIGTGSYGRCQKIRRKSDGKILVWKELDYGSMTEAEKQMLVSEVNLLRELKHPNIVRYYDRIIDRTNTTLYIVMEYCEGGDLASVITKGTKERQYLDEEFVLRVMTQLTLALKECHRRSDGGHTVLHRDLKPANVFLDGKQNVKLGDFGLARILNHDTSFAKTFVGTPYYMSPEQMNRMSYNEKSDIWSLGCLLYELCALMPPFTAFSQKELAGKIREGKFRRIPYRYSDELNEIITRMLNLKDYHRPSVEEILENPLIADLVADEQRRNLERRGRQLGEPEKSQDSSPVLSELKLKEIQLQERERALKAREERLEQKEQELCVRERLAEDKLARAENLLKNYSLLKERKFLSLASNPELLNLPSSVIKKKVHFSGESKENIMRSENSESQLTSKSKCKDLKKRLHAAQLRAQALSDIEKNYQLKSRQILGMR

For `O=C1c2ccccc2-c2nc3nnnn3nc21.O=C1c2ccccc2-c2nn3nnnc3nc21` [KP372-1], the pIC50 in experiment [1] was 7.17. In addition, the NEK2 expression result is reported as “significantly inhibits NEK2 expression” in [2] and “inhibits NEK2 expression” in experiment [2] (listed as NI-2). In experiment [3], the “anti-proliferative and apoptotic activity, NEK2-transfected versus EV control cells” value was “stronger anti-proliferative and apoptotic activity in the NEK2-transfected cells than the EV control cells”. Also, the cell death result in [3] (setting [7]) is “induced significantly cell death; also recorded: induced cell growth inhibition and death”; in experiment [4] (setting [8]) it was “cell death”. Also, the growth inhibition result in experiment [3] (setting [7]) is “induced significantly cell death and growth inhibition”; in [4] (setting [8]), “significant growth inhibition”. Besides, the “tumor burden (tumor volumes)” value in [5] (P<0.05) is on record as “reduced tumor burden”. Besides, the “mouse survival, 5TGM1-DR mice” value in experiment [5] (KP372-1 0.8 mg/kg, 3 times/week, s.c, P<0.01) was “able to overcome drug resistance and extend mouse survival”. Besides, the “growth of 5TGM1 tumors compared with untreated control” value in [5] (NI-2 0.8 mg/kg 3 times/week sc, bortezomib 1 mg/kg 2 times/week sc, start 1 week after injection, P<0.05) is “significantly inhibited the growth of 5TGM1 tumors”.
For the compound `CC(C)C[C@H](NC(=O)[C@H](Cc1ccccc1)NC(=O)c1cnccn1)B(O)O` [bortezomib], the pIC50 is 8.32 in the experiment with RPMI8226 cells (RPMI-8226, parental RPMI8226 cells); 6.60 in the experiment with RPMI8226 cells (bortezomib-resistant RPMI8226 cells); 7.59 in the experiment with ARP1 cells (ARP-1, bortezomib-resistant ARP1 cells); 8.13 with ARP1 cells (ARP-1, parental ARP1 cells); 6.60 with 5TGM1 cells (5TGM1, 5TGM1-R (bortezomib-resistant)); 8.28 in the experiment on 5TGM1 cells (5TGM1, wild-type 5TGM1 cells (5TGM1-WT)). Moreover, the “growth inhibition in NEK2-transfected cells compared with EV-transfected controls” value in experiment [6] (8 nM) is “significantly less growth inhibition”. In [4] (bortezomib treatment), the “cell death in drug-resistant cells compared with parental controls” value is “significantly less growth inhibition and cell death”. The “growth inhibition in drug-resistant cells compared with parental controls” value in [4] (bortezomib treatment) is reported as “significantly less growth inhibition”. In addition, in [5] (P<0.05), the “tumor burden (tumor volumes)” value is on record as “reduced tumor burden”.
As to `COc1cccc2c1C(=O)c1c(O)c3c(c(O)c1C2=O)C[C@@](O)(C(=O)CO)C[C@@H]3O[C@H]1C[C@H](N)[C@H](O)[C@H](C)O1` [doxorubicin], in experiment [6] (100 nM), the “growth inhibition in NEK2-transfected cells compared with EV-transfected controls” value was “significantly less growth inhibition” and the “cell death in NEK2-transfected cells compared with EV-transfected controls” value is on record as “significantly less”.
As to `COc1cc([C@@H]2c3cc4c(cc3[C@@H](O[C@@H]3O[C@@H]5CO[C@@H](C)O[C@H]5[C@H](O)[C@H]3O)[C@H]3COC(=O)[C@H]23)OCO4)cc(OC)c1O` [etoposide], in experiment [6] (100 nM), the “growth inhibition in NEK2-transfected cells compared with EV-transfected controls” value is listed as “significantly less growth inhibition” and the “cell death in NEK2-transfected cells compared with EV-transfected controls” value is “significantly less”.
